Target: D(2) dopamine receptor (Rattus norvegicus, UniProt P61169)
Assay: ChEBML_58532
From the text: Ability to inhibit [3H]spiperone binding to Dopamine receptor D2 in rat corpus striatum

D(2) dopamine receptor, sequence (P61169 whole entry): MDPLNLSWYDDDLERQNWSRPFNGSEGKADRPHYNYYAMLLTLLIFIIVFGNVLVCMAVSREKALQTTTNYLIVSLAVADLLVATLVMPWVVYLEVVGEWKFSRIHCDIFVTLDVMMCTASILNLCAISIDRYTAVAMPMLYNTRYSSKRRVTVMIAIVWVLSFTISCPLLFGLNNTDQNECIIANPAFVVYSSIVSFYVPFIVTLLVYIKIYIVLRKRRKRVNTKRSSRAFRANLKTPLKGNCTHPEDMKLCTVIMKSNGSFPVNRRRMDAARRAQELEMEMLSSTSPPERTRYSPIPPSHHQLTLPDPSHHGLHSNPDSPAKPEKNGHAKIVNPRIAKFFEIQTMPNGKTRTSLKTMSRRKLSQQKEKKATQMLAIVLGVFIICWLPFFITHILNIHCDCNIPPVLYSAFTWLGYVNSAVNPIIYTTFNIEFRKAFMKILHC

- IC50: > 1 µM
Structure (SMILES): O=c1scc(O)n1CCCCN1CCN(c2ccccn2)CC1
